Data taken from article PMC3694096, “Development of Novel In Vivo Chemical Probes to Address CNS Protein Kinase Involvement in Synaptic Dysfunction” (PLoS ONE, 2013).
Like-named read-outs stand apart in the source and are kept apart here.

Columns and labels:
Abl (H396P) = target: T1, Abl (H396P) (Homo sapiens, UniProt P00519, H396P); assay: Kinome profiler screen; assay type: biochemical; settings: at 20,000 nM inhibitor; kinase activity remaining
T1 construct: purchased Millipore KinaseProfiler

Abl (Q252H) = target: T2, Abl (Q252H) (Homo sapiens, UniProt P00519, Q252H); assay: Kinome profiler screen; assay type: biochemical; settings: at 20,000 nM inhibitor; kinase activity remaining
T2 construct: purchased Millipore KinaseProfiler

AMPKα2 = target: T3, AMPKα2 (Homo sapiens, UniProt P54646); assay: Kinome profiler screen; assay type: biochemical; settings: at 20,000 nM inhibitor; kinase activity remaining
T3 construct: purchased Millipore KinaseProfiler

Axl = target: T4, Axl (Homo sapiens, UniProt P30530); assay: Kinome profiler screen; assay type: biochemical; settings: at 20,000 nM inhibitor; kinase activity remaining
T4 construct: purchased Millipore KinaseProfiler

BrSK1 = target: T5, BrSK1 (Homo sapiens, UniProt Q8TDC3); assay: Kinome profiler screen; assay type: biochemical
T5 construct: purchased Millipore KinaseProfiler

BTK(R28H) = target: T6, BTK(R28H) (Homo sapiens, UniProt Q06187, R28H); assay: Kinome profiler screen; assay type: biochemical; settings: at 20,000 nM inhibitor; kinase activity remaining
T6 construct: purchased Millipore KinaseProfiler

CaMKI = target: T7, CaMKI (Homo sapiens, UniProt Q14012); assay: Kinome profiler screen; assay type: biochemical; settings: at 20,000 nM inhibitor; kinase activity remaining
T7 construct: purchased Millipore KinaseProfiler

cKit(D816H) = target: T8, cKit(D816H) (Homo sapiens, UniProt P10721, D816H); assay: Kinome profiler screen; assay type: biochemical; settings: at 20,000 nM inhibitor; kinase activity remaining
T8 construct: purchased Millipore KinaseProfiler

c-RAF = target: T9, c-RAF (Homo sapiens, UniProt P04049); assay: Kinome profiler screen; assay type: biochemical; settings: for activity at 20 µM: at 20,000 nM inhibitor, kinase activity remaining
T9 construct: purchased Millipore

DMPK = target: T10, DMPK (Homo sapiens, UniProt Q09013); assay: Kinome profiler screen; assay type: biochemical; settings: at 20,000 nM inhibitor; kinase activity remaining
T10 construct: purchased Millipore KinaseProfiler

DYRK2 = target: T11, DYRK2 (Homo sapiens, UniProt Q92630); assay: Kinome profiler screen; assay type: biochemical; settings: at 20,000 nM inhibitor; kinase activity remaining
T11 construct: purchased Millipore KinaseProfiler

Fer = target: T12, Fer (Homo sapiens, UniProt P16591); assay: Kinome profiler screen; assay type: biochemical; settings: at 20,000 nM inhibitor; kinase activity remaining
T12 construct: purchased Millipore KinaseProfiler

FGFR1(V561M) = target: T13, FGFR1(V561M) (Homo sapiens, UniProt P11362, V561M); assay: Kinome profiler screen; assay type: biochemical; settings: at 20,000 nM inhibitor; kinase activity remaining
T13 construct: purchased Millipore KinaseProfiler

Fgr = target: T14, Fgr (Homo sapiens, UniProt P09769); assay: Kinome profiler screen; assay type: biochemical; settings: at 20,000 nM inhibitor; kinase activity remaining
T14 construct: purchased Millipore KinaseProfiler

GSK3β = target: T15, GSK3β (Homo sapiens, UniProt P49841); assay: Kinome profiler screen; assay type: biochemical; settings: at 20,000 nM inhibitor; kinase activity remaining
T15 construct: purchased Millipore KinaseProfiler

Lck = target: T16, Lck (Homo sapiens, UniProt P06239); assay: Kinome profiler screen; assay type: biochemical; settings: at 20,000 nM inhibitor; kinase activity remaining
T16 construct: purchased Millipore KinaseProfiler

Lyn(m) = target: T17, Lyn(m) (Mus musculus, UniProt P25911); assay: Kinome profiler screen; assay type: biochemical; settings: at 20,000 nM inhibitor; kinase activity remaining
T17 construct: purchased Millipore KinaseProfiler

MAPK1 = target: T18, MAPK1 (Homo sapiens, UniProt P27361); assay: Kinome profiler screen; assay type: biochemical; settings: at 20,000 nM inhibitor; kinase activity remaining
T18 construct: purchased Millipore KinaseProfiler

MAPK2(m) = target: T19, MAPK2(m) (Mus musculus, UniProt P63085); assay: Kinome profiler screen; assay type: biochemical; settings: at 20,000 nM inhibitor; kinase activity remaining
T19 construct: purchased Millipore KinaseProfiler

Met(Y1248C) = target: T20, Met(Y1248C) (Homo sapiens, UniProt P08581, Y1230C); assay: Kinome profiler screen; assay type: biochemical; settings: at 20,000 nM inhibitor; kinase activity remaining
T20 construct: purchased Millipore KinaseProfiler

Met(Y1248H) = target: T21, Met(Y1248H) (Homo sapiens, UniProt P08581, Y1230H); assay: Kinome profiler screen; assay type: biochemical; settings: at 20,000 nM inhibitor; kinase activity remaining
T21 construct: purchased Millipore KinaseProfiler

MLK1 = target: T22, MLK1 (Homo sapiens, UniProt P80192); assay: Kinome profiler screen; assay type: biochemical; settings: at 20,000 nM inhibitor; kinase activity remaining
T22 construct: purchased Millipore KinaseProfiler

MuSK = target: T23, MuSK (Homo sapiens, UniProt O15146); assay: Kinome profiler screen; assay type: biochemical; settings: at 20,000 nM inhibitor; kinase activity remaining
T23 construct: purchased Millipore KinaseProfiler

PhKγ2 = target: T24, PhKγ2 (Homo sapiens, UniProt P15735); assay: Kinome profiler screen; assay type: biochemical; settings: at 20,000 nM inhibitor; kinase activity remaining
T24 construct: purchased Millipore KinaseProfiler

PKA = target: T25, PKA (Homo sapiens, UniProt P17612); assay: Kinome profiler screen; assay type: biochemical; settings: at 20,000 nM inhibitor; kinase activity remaining
T25 construct: purchased Millipore KinaseProfiler

PKBγ = target: T26, PKBγ (Homo sapiens, UniProt Q9Y243); assay: Kinome profiler screen; assay type: biochemical; settings: at 20,000 nM inhibitor; kinase activity remaining
T26 construct: purchased Millipore KinaseProfiler

PKCβI = target: T27, PKCβI (Homo sapiens, UniProt P05771); assay: Kinome profiler screen; assay type: biochemical; settings: at 20,000 nM inhibitor; kinase activity remaining
T27 construct: purchased Millipore KinaseProfiler

PKCθ = target: T28, PKCθ (Homo sapiens, UniProt Q04759); assay: Kinome profiler screen; assay type: biochemical; settings: at 20,000 nM inhibitor; kinase activity remaining
T28 construct: purchased Millipore KinaseProfiler

Plk1 = target: T29, Plk1 (Homo sapiens, UniProt P53350); assay: Kinome profiler screen; assay type: biochemical; settings: at 20,000 nM inhibitor; kinase activity remaining
T29 construct: purchased Millipore KinaseProfiler

Ret = target: T30, Ret (Homo sapiens, UniProt P07949); assay: Kinome profiler screen; assay type: biochemical; settings: at 20,000 nM inhibitor; kinase activity remaining
T30 construct: purchased Millipore KinaseProfiler

Ret(V804M) = target: T31, Ret(V804M) (Homo sapiens, UniProt P07949, V804M); assay: Kinome profiler screen; assay type: biochemical; settings: at 20,000 nM inhibitor; kinase activity remaining
T31 construct: purchased Millipore KinaseProfiler

Ron = target: T32, Ron (Homo sapiens, UniProt Q04912); assay: Kinome profiler screen; assay type: biochemical; settings: at 20,000 nM inhibitor; kinase activity remaining
T32 construct: purchased Millipore KinaseProfiler

SGK3 = target: T33, SGK3 (Homo sapiens, UniProt Q96BR1); assay: Kinome profiler screen; assay type: biochemical; settings: at 20,000 nM inhibitor; kinase activity remaining
T33 construct: purchased Millipore KinaseProfiler

SRPK1 = target: T34, SRPK1 (Homo sapiens, UniProt Q96SB4); assay: Kinome profiler screen; assay type: biochemical
T34 construct: purchased Millipore KinaseProfiler

TSSK2 = target: T35, TSSK2 (Homo sapiens, UniProt Q96PF2); assay: Kinome profiler screen; assay type: biochemical; settings: at 20,000 nM inhibitor; kinase activity remaining
T35 construct: purchased Millipore KinaseProfiler

Txk = target: T36, Txk (Homo sapiens, UniProt P42681); assay: Kinome profiler screen; assay type: biochemical; settings: at 20,000 nM inhibitor; kinase activity remaining
T36 construct: purchased Millipore KinaseProfiler

WNK2 = target: T37, WNK2 (Homo sapiens, UniProt Q9Y3S1); assay: Kinome profiler screen; assay type: biochemical; settings: at 20,000 nM inhibitor; kinase activity remaining
T37 construct: purchased Millipore KinaseProfiler

ZAP-70 = target: T38, ZAP-70 (Homo sapiens, UniProt P43403); assay: Kinome profiler screen; assay type: biochemical; settings: at 20,000 nM inhibitor; kinase activity remaining
T38 construct: purchased Millipore KinaseProfiler

ZIPK = target: T39, ZIPK (Homo sapiens, UniProt O43293); assay: Kinome profiler screen; assay type: biochemical; settings: at 20,000 nM inhibitor; kinase activity remaining
T39 construct: purchased Millipore KinaseProfiler

BV-2 microglial cells = assay: cells; assay type: cell-based, murine; settings: BV-2 cells
reference memory = assay: 2-day radial arm water maze (RAWM), Aβ42-infused mice; assay type: in vivo, C57BL/6J mice; settings: 5 mg/Kg i.p.
[1] = test system: visual, motor and motivation deficits; assay: Visible platform test; assay type: in vivo, C57BL/6J mice; settings: control test
[2] = at 20,000 nM inhibitor, kinase activity remaining, read-out: % Activity

T9 sequence (P04049 whole entry): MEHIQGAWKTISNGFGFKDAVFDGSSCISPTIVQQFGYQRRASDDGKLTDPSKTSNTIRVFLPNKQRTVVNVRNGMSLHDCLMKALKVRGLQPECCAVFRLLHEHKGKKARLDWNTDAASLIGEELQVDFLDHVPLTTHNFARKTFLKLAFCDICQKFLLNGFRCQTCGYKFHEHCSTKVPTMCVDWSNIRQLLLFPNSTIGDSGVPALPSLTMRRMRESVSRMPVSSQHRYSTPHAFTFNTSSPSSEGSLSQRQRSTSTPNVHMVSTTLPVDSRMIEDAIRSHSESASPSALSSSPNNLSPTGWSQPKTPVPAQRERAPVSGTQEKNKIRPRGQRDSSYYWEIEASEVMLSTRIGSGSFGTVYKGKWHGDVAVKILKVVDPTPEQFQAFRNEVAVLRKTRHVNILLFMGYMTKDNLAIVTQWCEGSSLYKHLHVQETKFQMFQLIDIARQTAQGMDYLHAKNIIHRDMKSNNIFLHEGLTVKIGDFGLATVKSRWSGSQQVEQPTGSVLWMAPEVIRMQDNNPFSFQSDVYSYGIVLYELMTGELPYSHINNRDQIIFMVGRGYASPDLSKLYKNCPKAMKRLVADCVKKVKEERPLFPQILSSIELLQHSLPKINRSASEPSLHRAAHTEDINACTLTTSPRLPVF
T3 sequence (P54646 whole entry): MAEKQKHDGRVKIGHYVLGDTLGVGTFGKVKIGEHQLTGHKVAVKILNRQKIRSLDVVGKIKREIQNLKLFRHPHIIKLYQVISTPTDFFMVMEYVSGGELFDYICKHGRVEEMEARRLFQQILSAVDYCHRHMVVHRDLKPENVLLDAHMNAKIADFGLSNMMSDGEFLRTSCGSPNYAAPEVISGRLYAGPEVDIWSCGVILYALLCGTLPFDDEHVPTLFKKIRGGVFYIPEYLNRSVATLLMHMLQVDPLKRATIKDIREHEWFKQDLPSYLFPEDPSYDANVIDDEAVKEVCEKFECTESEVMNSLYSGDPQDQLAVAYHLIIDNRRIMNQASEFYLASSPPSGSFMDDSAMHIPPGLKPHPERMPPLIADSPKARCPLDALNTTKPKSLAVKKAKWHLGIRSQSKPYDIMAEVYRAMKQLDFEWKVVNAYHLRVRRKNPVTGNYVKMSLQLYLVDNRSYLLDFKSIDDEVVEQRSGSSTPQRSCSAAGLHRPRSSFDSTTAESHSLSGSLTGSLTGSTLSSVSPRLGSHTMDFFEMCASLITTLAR
T3 sequence (Q9Y478 whole entry partner): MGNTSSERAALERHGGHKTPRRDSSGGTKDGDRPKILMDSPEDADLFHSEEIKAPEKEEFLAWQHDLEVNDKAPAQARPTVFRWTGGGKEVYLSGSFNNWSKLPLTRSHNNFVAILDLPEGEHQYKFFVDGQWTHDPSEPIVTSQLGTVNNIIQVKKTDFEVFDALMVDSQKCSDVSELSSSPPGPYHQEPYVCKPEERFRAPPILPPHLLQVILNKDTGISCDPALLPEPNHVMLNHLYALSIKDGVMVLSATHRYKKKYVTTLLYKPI
T3 sequence (P54619 whole entry partner): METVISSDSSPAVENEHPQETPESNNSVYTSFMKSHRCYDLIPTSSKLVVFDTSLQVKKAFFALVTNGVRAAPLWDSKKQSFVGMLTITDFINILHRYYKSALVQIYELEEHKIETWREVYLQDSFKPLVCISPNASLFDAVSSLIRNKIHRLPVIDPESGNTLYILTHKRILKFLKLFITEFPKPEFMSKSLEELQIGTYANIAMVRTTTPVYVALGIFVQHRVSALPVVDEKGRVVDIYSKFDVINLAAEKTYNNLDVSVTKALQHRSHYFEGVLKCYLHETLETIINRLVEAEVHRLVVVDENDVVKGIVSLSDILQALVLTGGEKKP
T5 sequence (Q8TDC3 whole entry): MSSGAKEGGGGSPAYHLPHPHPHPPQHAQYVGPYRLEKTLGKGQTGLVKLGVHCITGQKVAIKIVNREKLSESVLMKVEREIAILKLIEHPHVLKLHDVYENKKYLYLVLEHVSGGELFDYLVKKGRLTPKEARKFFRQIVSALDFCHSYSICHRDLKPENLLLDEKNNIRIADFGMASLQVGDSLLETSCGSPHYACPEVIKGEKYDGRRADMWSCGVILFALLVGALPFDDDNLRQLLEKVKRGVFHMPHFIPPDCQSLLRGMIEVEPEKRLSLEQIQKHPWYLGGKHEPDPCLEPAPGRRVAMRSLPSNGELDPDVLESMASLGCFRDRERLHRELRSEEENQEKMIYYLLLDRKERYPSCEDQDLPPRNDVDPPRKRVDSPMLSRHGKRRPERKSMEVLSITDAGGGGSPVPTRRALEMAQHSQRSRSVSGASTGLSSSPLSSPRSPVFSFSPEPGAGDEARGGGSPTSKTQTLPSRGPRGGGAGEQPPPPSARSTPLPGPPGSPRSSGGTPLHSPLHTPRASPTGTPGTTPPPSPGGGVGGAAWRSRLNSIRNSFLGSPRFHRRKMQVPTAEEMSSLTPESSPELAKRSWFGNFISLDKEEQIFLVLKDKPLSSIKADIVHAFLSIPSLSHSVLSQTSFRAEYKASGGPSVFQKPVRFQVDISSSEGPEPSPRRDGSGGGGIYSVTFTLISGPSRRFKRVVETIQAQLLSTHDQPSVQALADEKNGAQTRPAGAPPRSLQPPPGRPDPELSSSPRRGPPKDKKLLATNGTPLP
T15 sequence (P49841 whole entry): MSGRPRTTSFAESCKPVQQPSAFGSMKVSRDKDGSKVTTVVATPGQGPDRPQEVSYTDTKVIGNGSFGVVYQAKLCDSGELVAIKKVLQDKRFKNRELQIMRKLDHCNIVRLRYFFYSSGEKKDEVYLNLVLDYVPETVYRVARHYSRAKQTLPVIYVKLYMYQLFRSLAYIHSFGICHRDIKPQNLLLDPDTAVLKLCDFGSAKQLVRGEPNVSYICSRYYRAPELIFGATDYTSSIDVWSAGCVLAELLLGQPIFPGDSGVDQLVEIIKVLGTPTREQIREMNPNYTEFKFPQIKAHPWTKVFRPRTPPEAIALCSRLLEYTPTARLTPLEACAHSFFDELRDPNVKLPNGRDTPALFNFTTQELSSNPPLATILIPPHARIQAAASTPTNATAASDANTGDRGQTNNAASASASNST
T7 sequence (Q14012 whole entry): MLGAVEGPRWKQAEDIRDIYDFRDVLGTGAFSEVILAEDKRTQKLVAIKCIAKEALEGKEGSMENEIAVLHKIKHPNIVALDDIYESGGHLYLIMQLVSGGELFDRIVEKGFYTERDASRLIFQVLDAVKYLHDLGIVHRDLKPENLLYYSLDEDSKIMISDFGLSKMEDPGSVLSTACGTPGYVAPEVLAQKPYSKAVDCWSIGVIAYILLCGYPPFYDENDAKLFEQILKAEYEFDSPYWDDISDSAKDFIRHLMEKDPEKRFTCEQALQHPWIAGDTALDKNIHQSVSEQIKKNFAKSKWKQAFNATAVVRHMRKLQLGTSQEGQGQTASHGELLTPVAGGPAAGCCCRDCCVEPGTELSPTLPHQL
T10 sequence (Q09013 whole entry): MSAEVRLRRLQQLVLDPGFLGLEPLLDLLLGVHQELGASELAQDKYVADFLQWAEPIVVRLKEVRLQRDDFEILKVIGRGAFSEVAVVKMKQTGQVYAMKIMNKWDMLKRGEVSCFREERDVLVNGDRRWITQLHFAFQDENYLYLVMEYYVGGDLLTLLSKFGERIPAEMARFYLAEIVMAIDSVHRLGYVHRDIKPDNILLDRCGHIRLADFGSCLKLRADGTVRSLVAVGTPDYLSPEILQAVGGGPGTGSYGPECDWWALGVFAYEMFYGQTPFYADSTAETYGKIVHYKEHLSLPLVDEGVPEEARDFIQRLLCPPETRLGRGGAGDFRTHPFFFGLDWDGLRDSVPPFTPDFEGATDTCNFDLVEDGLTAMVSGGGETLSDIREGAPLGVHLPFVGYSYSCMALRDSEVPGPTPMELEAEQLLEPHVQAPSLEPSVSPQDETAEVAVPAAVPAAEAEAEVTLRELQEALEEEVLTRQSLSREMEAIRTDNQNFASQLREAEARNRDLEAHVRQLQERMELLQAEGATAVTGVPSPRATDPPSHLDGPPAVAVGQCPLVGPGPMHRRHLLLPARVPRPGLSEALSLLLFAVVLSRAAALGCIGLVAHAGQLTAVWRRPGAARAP
T29 sequence (P53350 whole entry): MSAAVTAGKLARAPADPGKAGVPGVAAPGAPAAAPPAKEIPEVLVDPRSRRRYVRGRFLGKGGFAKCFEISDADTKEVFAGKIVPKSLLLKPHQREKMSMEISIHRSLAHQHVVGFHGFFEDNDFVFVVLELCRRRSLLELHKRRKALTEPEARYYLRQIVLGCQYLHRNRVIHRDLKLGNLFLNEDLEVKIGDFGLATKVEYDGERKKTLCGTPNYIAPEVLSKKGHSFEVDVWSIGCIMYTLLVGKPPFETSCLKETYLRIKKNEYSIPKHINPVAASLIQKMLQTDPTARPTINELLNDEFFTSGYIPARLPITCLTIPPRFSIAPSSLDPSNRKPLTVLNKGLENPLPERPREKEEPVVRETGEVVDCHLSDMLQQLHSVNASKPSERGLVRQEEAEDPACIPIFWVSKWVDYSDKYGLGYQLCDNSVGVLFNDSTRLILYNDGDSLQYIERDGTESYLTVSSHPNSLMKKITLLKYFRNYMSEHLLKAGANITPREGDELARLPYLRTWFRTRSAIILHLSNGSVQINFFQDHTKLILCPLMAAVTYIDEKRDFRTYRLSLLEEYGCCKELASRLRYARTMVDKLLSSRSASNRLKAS
T18 sequence (P27361 whole entry): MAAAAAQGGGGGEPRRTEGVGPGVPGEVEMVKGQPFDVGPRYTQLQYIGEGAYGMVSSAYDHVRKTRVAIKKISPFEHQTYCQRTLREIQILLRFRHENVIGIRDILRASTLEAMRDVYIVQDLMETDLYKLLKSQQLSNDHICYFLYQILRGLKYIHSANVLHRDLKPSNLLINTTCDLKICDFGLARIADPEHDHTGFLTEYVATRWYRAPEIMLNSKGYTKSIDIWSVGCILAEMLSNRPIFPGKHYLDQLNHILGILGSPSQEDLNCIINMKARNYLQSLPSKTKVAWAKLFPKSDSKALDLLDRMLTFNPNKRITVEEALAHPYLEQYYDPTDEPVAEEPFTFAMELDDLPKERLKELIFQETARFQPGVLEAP

CN(C)c1cc(-c2ccncc2)c(-c2cccc3ccccc23)nn1 [MW181, N,N-dimethyl-6-(naphthalen-1-yl)-5-(pyridin-4-yl)pyridazin-3-amine]
activity at 20 µM (Abl (H396P)): 101% | activity at 20 µM (Abl (Q252H)): 100% | activity at 20 µM (AMPKα2): 95% | activity at 20 µM (Axl): 99% | activity at 20 µM (BrSK1; [2]): 94% | activity at 20 µM (BTK(R28H)): 96% | activity at 20 µM (CaMKI): 101% | activity at 20 µM (cKit(D816H)): 102% | activity at 20 µM (c-RAF): 70% | activity at 20 µM (DMPK): 116% | activity at 20 µM (DYRK2): 109% | activity at 20 µM (Fer): 92% | activity at 20 µM (FGFR1(V561M)): 93% | activity at 20 µM (Fgr): 90% | activity at 20 µM (GSK3β): 92% | activity at 20 µM (Lck): 89% | activity at 20 µM (Lyn(m)): 90% | activity at 20 µM (MAPK1): 90% | activity at 20 µM (MAPK2(m)): 106% | activity at 20 µM (Met(Y1248C)): 100% | activity at 20 µM (Met(Y1248H)): 103% | activity at 20 µM (MLK1): 95% | activity at 20 µM (MuSK): 102% | activity at 20 µM (PhKγ2): 93% | activity at 20 µM (PKA): 142% | activity at 20 µM (PKBγ): 100% | activity at 20 µM (PKCβI): 104% | activity at 20 µM (PKCθ): 98% | activity at 20 µM (Plk1): 110% | activity at 20 µM (Ret): 118% | activity at 20 µM (Ret(V804M)): 102% | activity at 20 µM (Ron): 94% | activity at 20 µM (SGK3): 100% | activity at 20 µM (SRPK1; [2]): 103% | activity at 20 µM (TSSK2): 107% | activity at 20 µM (Txk): 98% | activity at 20 µM (WNK2): 92% | activity at 20 µM (ZAP-70): 99% | activity at 20 µM (ZIPK): 106% | LPS-induced IL-1β production (BV-2 microglial cells): inhibited LPS-induced IL-1β production in a concentration-dependent manner | reference memory deficit, RAWM (reference memory): ameliorated the reference memory deficit | visible platform test, speed and time to the platform [1]: No difference was detected between groups

CN(C)c1cc(-c2ccncc2)c(-c2ccc3ccccc3c2)nn1 [MW108, N, N-dimethyl-6-(naphthalen-2-yl)-5-(pyridin-4-yl)pyridazin-3-amine]
activity at 20 µM (Abl (H396P)): 94% | activity at 20 µM (Abl (Q252H)): 105% | activity at 20 µM (AMPKα2): 102% | activity at 20 µM (Axl): 106% | activity at 20 µM (BrSK1): 94% | activity at 20 µM (BTK(R28H)): 101% | activity at 20 µM (CaMKI): 101% | activity at 20 µM (cKit(D816H)): 109% | IC50 (c-RAF): 9.12 µM | activity at 20 µM (c-RAF): 27% | activity at 20 µM (DMPK): 108% | activity at 20 µM (DYRK2): 108% | activity at 20 µM (Fer): 97% | activity at 20 µM (FGFR1(V561M)): 90% | activity at 20 µM (Fgr): 92% | activity at 20 µM (GSK3β): 97% | activity at 20 µM (Lck): 62% | activity at 20 µM (Lyn(m)): 97% | activity at 20 µM (MAPK1): 82% | activity at 20 µM (MAPK2(m)): 109% | activity at 20 µM (Met(Y1248C)): 84% | activity at 20 µM (Met(Y1248H)): 88% | activity at 20 µM (MLK1): 98% | activity at 20 µM (MuSK): 104% | activity at 20 µM (PhKγ2): 98% | activity at 20 µM (PKA): 74% | activity at 20 µM (PKBγ): 92% | activity at 20 µM (PKCβI): 92% | activity at 20 µM (PKCθ): 107% | activity at 20 µM (Plk1): 96% | activity at 20 µM (Ret): 94% | activity at 20 µM (Ret(V804M)): 85% | activity at 20 µM (Ron): 91% | activity at 20 µM (SGK3): 104% | activity at 20 µM (SRPK1): 114% | activity at 20 µM (TSSK2): 101% | activity at 20 µM (Txk): 98% | activity at 20 µM (WNK2): 101% | activity at 20 µM (ZAP-70): 92% | activity at 20 µM (ZIPK): 93% | LPS-induced IL-1β production (BV-2 microglial cells): inhibited LPS-induced IL-1β production in a concentration-dependent manner | IC50 (BV-2 microglial cells; Mus musculus, 100 ng/ml LPS, 18 hrs, read-out: IC50, inhibition of IL-1β overproduction): 0.61 ± 0.02 µM | reference memory deficit, RAWM (reference memory): ameliorated the reference memory deficit | visible platform test, speed and time to the platform [1]: No difference was detected between groups
